Measurements: PubChem BioAssay (NCI)
Several values for one entry are separate records, joined by “and”; a condition that tells them apart may be missing. Equal values may be shown once.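 Following 48 hours of exposure in 96-well plates, responses at five concentrations were used to interpolate endpoints linearly. The concentration for 50% growth inhibition is given as GI50. At the TGI there is no net growth.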

Tests used:
Assay in all cases: inhibition of tumour cell growth, NCI panel, 48 h
[1] = system: OVCAR-5 ovarian
[2] = system: SNB-75 CNS
[3] = system: UACC-62 melanoma
[4] = system: RPMI-8226 leukemia
[5] = system: OVCAR-3 ovarian
[6] = system: NCI-H460 lung
[7] = system: HOP-62 NSCLC
[8] = system: CAKI-1 renal
[9] = system: SW-620 colon
[10] = system: T-47D breast

| SMILES | TGI [1] | TGI [2] | TGI [3] | TGI [4] | TGI [5] | TGI [6] | TGI [7] | TGI [8] | TGI [9] | TGI [10] | GI50 [1] | GI50 [2] | GI50 [3] | GI50 [4] | GI50 [5] | GI50 [6] | GI50 [7] | GI50 [8] | GI50 [9] | GI50 [10] |
| --- | --- | --- | --- | --- | --- | --- | --- | --- | --- | --- | --- | --- | --- | --- | --- | --- | --- | --- | --- | --- |
| CC(=O)/C(=N\N=C(N)N)c1ccccc1 | > 100 µM | > 100 µM | > 100 µM | > 100 µM | > 100 µM | > 100 µM | > 100 µM | > 100 µM | > 100 µM | > 100 µM |  |  |  |  |  |  |  |  |  |  |
| C/C(=N\NC(=S)N1CCCC1)c1ccccn1 | 14.8 µM | 13 µM | 0.534 µM | 15.6 µM | 12.1 µM | 7.06 µM | 13.8 µM | 6.86 µM | 16.8 µM | 11 µM | 0.0763 µM | 0.273 µM | 0.09 µM | < 0.01 µM | < 0.01 µM | < 0.01 µM | < 0.01 µM | 0.0353 µM | < 0.01 µM | < 0.01 µM |
| Cc1cc(C)nc(NC(=O)COc2ccc(Cl)cc2)c1 | > 100 µM | > 100 µM | > 100 µM | > 100 µM | > 100 µM | > 100 µM | > 100 µM | > 100 µM | > 100 µM | > 100 µM |  |  |  |  |  |  |  |  |  |  |
| Cn1cc(-c2csc(-c3ccc(Cl)cc3)n2)c2cccnc21 | 32.7 µM | 54.3 µM | 29.8 µM | 78.6 µM | 35.6 µM | 34.4 µM | 32.4 µM | 25.6 µM | 29.3 µM | 36.4 µM | 14.2 µM | 20 µM | 10.5 µM | 12.3 µM | 17.1 µM | 16 µM | 17.2 µM | 6.99 µM | 15 µM | 5.17 µM |
| CCS(=O)(=O)c1cccc(-c2cc(C(=O)NC3CCN(C)CC3)c(C)c3[nH]c4ncc(C)cc4c23)c1 | > 9.67 µM and 11.4 µM | 0.459 µM and 0.264 µM | 2.13 µM and 2.09 µM | > 7.51 µM and 9.07 µM | 2.48 µM and 1.41 µM | 4.96 µM and 1.64 µM | > 6.56 µM and 2.01 µM | > 6.29 µM and 36.4 µM | > 10 µM and 1.85 µM | 4.12 µM and 3.16 µM | 0.463 µM and 0.34 µM | 0.101 µM and 0.0804 µM | 0.452 µM and 0.372 µM | 0.736 µM and 0.929 µM | 0.336 µM and 0.232 µM | 0.201 µM and 0.0843 µM | 0.645 µM and 0.266 µM | 1.35 µM and 6.41 µM | 0.268 µM and 0.143 µM | 0.277 µM and 0.204 µM |
| COc1ccc(N=c2nc3sc4cc(Cl)ccc4n3c(N)c2C#N)cc1 | > 100 µM | > 100 µM | > 38.5 µM | > 72.6 µM | 44.8 µM | > 100 µM | > 100 µM | 78.3 µM | 29.7 µM | > 100 µM | 5.21 µM | 3.4 µM | 3.35 µM | 25 µM | 9.66 µM | 21.1 µM | 4.84 µM | 8.05 µM | 3.69 µM | 39.1 µM |
| C[C@]12CCC3c4ccc(O)cc4CCC3C1CC[C@@H]2NC(=O)/C=C/c1ccc(O)c(O)c1 (stereo not given in full) | 35.9 µM | 9.36 µM | 24.4 µM | 24.8 µM | 48.7 µM | 35.3 µM | 35.9 µM | 48.4 µM | 45 µM | > 100 µM | 18.1 µM | 2.66 µM | 11.5 µM | 4.39 µM | 21.5 µM | 11.9 µM | 16.1 µM | 16.4 µM | 15.9 µM | 9.57 µM |
| O=S1(=O)CCC2=CC(C(F)(F)F)=CC(C(F)(F)F)=CN21 | 3.93 µM | 4.39 µM | 3.69 µM | 2.05 µM | 3.14 µM | 8.01 µM | 4.88 µM | 2.03 µM | 0.779 µM | 0.397 µM |  |  |  |  |  |  |  |  |  |  |
| Cc1nc(C(=O)OCc2ccccc2)cc(OCc2ccccc2)c1C | 51.6 µM | 39.4 µM | 24.8 µM | > 72.7 µM | 26.2 µM | 54.5 µM | 40.7 µM | > 100 µM | 44.2 µM | > 100 µM | 21.8 µM | 17.5 µM | 11 µM | 20.9 µM | 11.4 µM | 22.7 µM | 19.9 µM | 32.6 µM | 17.8 µM | 18.8 µM |
| Fc1ccc(-c2ncn(C3CCNCC3)c2-c2ccnc(Oc3ccc(Cl)cc3)n2)cc1 | 14.9 µM | 14.3 µM | 8.04 µM | 15.3 µM | 7.9 µM | 7.49 µM | 7.46 µM | > 16.7 µM | 7.3 µM | 6.71 µM | 5.09 µM | 3.4 µM | 4.18 µM | 5.44 µM | 4.09 µM | 3.79 µM | 3.7 µM | 5.49 µM | 3.74 µM | 2.74 µM |
| O=C(OCC1=CC(=O)c2ccccc2C1=O)c1ccccc1 | 41.1 µM | 29.4 µM | 9.02 µM | > 100 µM | 18.7 µM | 6.19 µM | 29.6 µM | 22.8 µM | 17.5 µM | 42.3 µM | 24.1 µM | 14.7 µM | 3.27 µM | 21.3 µM | 3.47 µM | 1.99 µM | 14.4 µM | 10.4 µM | 4.89 µM | 14.6 µM |
| O=C(NC1=C(Cl)C(=O)c2ccccc2C1=O)C(=O)c1c(O)c2ccccc2oc1=O | 26.3 µM | 25 µM | 4.58 µM | 30.3 µM | 6.79 µM | 7.68 µM | 18.8 µM | 22.6 µM | > 40.9 µM | 23.5 µM |  |  |  |  |  |  |  |  |  |  |
| CCCCS(=O)(=O)c1cc(Nc2ccc(O)c3c2C(=O)c2ccccc2C3=O)ccc1C | > 100 µM | > 100 µM | > 100 µM | > 100 µM |  | > 100 µM | > 100 µM | > 100 µM | > 100 µM | > 100 µM | > 100 µM | 21.9 µM | 2.77 µM | > 100 µM |  | 0.431 µM | 27.8 µM | > 100 µM | > 100 µM | > 100 µM |
| COc1ccc(/C=C(\C#N)c2cc(OC)c(OC)c(OC)c2)cc1 | > 100 µM | > 100 µM | > 100 µM | 27 µM | 0.0322 µM | 23.6 µM | > 100 µM | > 100 µM | > 100 µM | 61.8 µM | 0.0424 µM | 0.0297 µM | 0.0103 µM | 0.0483 µM | < 0.014 µM | 0.0327 µM | < 0.0184 µM | 0.0209 µM | 0.0282 µM | 0.672 µM |
| COc1ccc(C(=O)Cn2c(C(=O)c3ccc(Cl)cc3)nc(-c3ccccc3)c2-c2ccccc2)cc1 | > 100 µM | > 100 µM | > 100 µM | > 100 µM | > 100 µM | > 100 µM | > 100 µM | > 100 µM | > 100 µM | > 100 µM | > 100 µM | 85.8 µM | > 100 µM | > 100 µM | > 100 µM | > 100 µM | > 100 µM | 31.2 µM | > 100 µM | > 100 µM |
| CN(Cc1cnc2nc(N)nc(N)c2n1)c1c(Cl)cc(C(=O)NC(CCC(=O)O)C(=O)O)cc1Cl (stereo not given) | > 100 µM | > 100 µM | > 100 µM | > 100 µM | > 100 µM | > 100 µM | > 100 µM | 0.0242 µM | > 100 µM | > 100 µM | 1.76 µM | 0.173 µM | < 0.0106 µM | < 0.01 µM | 0.0685 µM | < 0.01 µM | 0.0287 µM | < 0.01 µM | < 0.01 µM |  |
| COC1CCC(OC)C(c2nc3sccn3c2/C=N/N=C(N)N)C1 (stereo not given) | > 51.7 µM | > 77.2 µM | 32.4 µM | 43.9 µM | 36.3 µM | > 76.5 µM | 42.7 µM | > 82.5 µM | 53.1 µM | > 65.4 µM | 2.84 µM | 6.44 µM | 16.6 µM | 4.18 µM | 7.76 µM | 27.7 µM | 17.2 µM | > 10.5 µM | 19.4 µM | 31.9 µM |
| O=C(O)CCN1C(=S)CSC1=S | > 100 µM | > 100 µM | > 100 µM | > 100 µM | > 100 µM | > 100 µM | > 100 µM | > 100 µM | > 100 µM | > 100 µM |  |  |  |  |  |  |  |  |  |  |
| COc1cc(C=NCC(=O)CSC(c2ccccc2)c2ccccc2)ccc1O | 30.4 µM | 25.9 µM | 27.5 µM | 25.1 µM | 24.9 µM | 56.2 µM | 27.9 µM | 43.2 µM | 31.4 µM | 12.3 µM | 16.4 µM | 13 µM | 13.6 µM | 6.26 µM | 11.3 µM | 20.1 µM | 14.6 µM | 16.6 µM | 15.5 µM | 2.86 µM |
| COc1c(OC2OC(C)C(O)C(O)C2O)c(OC)c2oc(-c3ccc(O)cc3)cc(=O)c2c1O (stereo not given) | > 100 µM | 87.1 µM | 38.4 µM | > 100 µM | 64.4 µM | 81.4 µM | > 100 µM | > 100 µM | > 100 µM | > 100 µM | > 100 µM | 20.6 µM | 16.6 µM | 28.2 µM | 21.5 µM | 27.7 µM | 35.1 µM | 27.6 µM | 35.7 µM | 22.3 µM |
| N#C/C(=C/C=C/c1cccc(Cl)c1)S(=O)c1ccccc1 (stereo not given) | 1.7 µM | 3.82 µM | 2.69 µM | 1 µM | 0.782 µM | 2.51 µM | 1.13 µM | 1.08 µM |  | 1.11 µM | 0.391 µM | 1.2 µM | 1.14 µM | 0.339 µM | 0.253 µM | 0.474 µM | 0.326 µM | 0.283 µM |  | 0.234 µM |
